Source: patent publication US20140142140A1, “PHARMACEUTICAL COMPOSITION FOR NEUROLOGICAL DISORDERS” (priority 2011, published 2014)
Read-outs that look alike come from different tables or passages of the source.

Assays:
[1] = system: patient with spina bifida, ADHD, learning difficulties; assay: Case report, Spina Bifida (Example 11); assay type: in vivo, human
[2] = system: mood stabilisation or epileptic symptoms or events; conditions: per day; cited from earlier work
patients with PTSD [3] = conditions: cited from earlier work
[4] = cited from earlier work
patients with PTSD [5] = assay: Case reports, PTSD (Example 9); assay type: in vivo, human
Description: Patient 9A: Two year history of PTSD & Major Depression, unable to work for nine months. […] Eight months specialist psychiatric treatment including specific PTSD therapy program. […] No history of premorbid ASD or ADHD, possible mild reading difficulties.
Patient 9B: 40 year history of severe PTSD associated with severe re-experiencing phenomena, absence of any family relationships and social withdrawal, anger outbursts, chronic sleep disturbance exaggerated startle reflex and hypervigilance. Comorbid conditions including chronic major depression, alcohol dependence. Attended regular psychiatric treatment for in excess of five years. Treated with a combination of regular outpatient psychotherapy and pharmacotherapy including antidepressants and antipsychotic medications.
Patient 9C: history of PTSD associated with chronic impairment in previous alcohol dependence. Previous psychiatric admissions as a consequence of condition. Long-term antidepressant therapy together with intermittent use of antipsychotic medication.

[6] = system: patients with schizophrenia; assay: Case reports, Schizophrenia (Example 7); assay type: in vivo, human
Description: Patient 7A: Adult, initially diagnosed with schizophrenia in adolescence. Long history of impairment with predominant paranoid delusions controlled with antipsychotic medication although still experiencing significant relapses despite consistent adherence to the pharmacotherapy regime. Significant social impairment, unable to sustain employment and requires support. Prominent negative symptoms and social deficits, unable to sustain eye contact when speaking. Speech slow, effortful and fatiguing. […] Prosody and rate of speech both improved. Patient 7B: Adult initially diagnosed with schizophrenia during adolescence, following many years of prominent positive symptoms with severe behavioural disturbances and violence requiring periods of hospitalisation. Patient has never been able to sustain employment and requires significant social support to maintain functioning. Prominent thought disorder and general social disengagement. […] Able to sustain and enjoy social interaction in a sheltered workshop which had never occurred previously.

[7] = system: patients with bipolar mood disorder; assay: Case report, Bipolar (Example 8); assay type: in vivo, human

In the case of `O=C1NC(=O)C(c2ccccc2)(c2ccccc2)N1` [phenyloin, 5,5-diphenylhydantoin], the “duration of sustained improvements” value ([1]; Patient 11A) is reported as “over 12 months”, the “social interaction, conversation, reading aloud, fine motor control and handwriting” value ([1]; Patient 11A (on low dose methylphenidate), sublingual dose 1 mg) is reported as “significant improvement” and the “dose associated with optimal response” value ([1]; Patient 11A, daily in two divided doses) is reported as 1.5 mg. The “efficacy after dose increase” value ([1]; Patient 11A, dose increased to 2 mg) was “loss of efficacy”, the “Minimum typical dose/day effective for mood stabilisation or treatment of epileptic symptoms or events” value [2] was 200 mg and the “increase in right brain volume” value (patients with PTSD [3]; 300 mg per day in three doses, up to 400 mg/day, p<0.05) was 6%. The “improvements in memory and cognition” value (patients with PTSD [3]; 300 to 400 mg/day) was “did not achieve statistical significance”, the half-life ([4]; high doses) was “prolonged” and the metabolism ([4]; in vivo) was “almost completely metabolized in the liver”. For the same compound, the “time for plasma concentration to reach steady-state level” value ([4]; in vivo) was 1-2 weeks, the half-life ([4]; low doses) was “less than 20 h” and the duration improvements maintained (patients with PTSD [5]; Patient 9A) was “over three months”. The “time to reported improvements” value (patients with PTSD [5]; Patient 9A, 2 mg daily) was ≤ 24 h, the “efficacy after dose change” value (patients with PTSD [5]; Patient 9A, dose reduced to 1 mg and increased to 4 mg) was “reduction in efficacy” and the overall improvement described (patients with PTSD [5]; Patient 9B, low dose) was 50%. For the same compound, the “most stable and efficacious dose” value (patients with PTSD [5]; Patient 9C) was 0.5 mg daily, the stable improvements (patients with PTSD [5]; Patient 9C, 0.5 mg daily) was “reduction of intrusive and negative thoughts • Enhanced interpersonal communication • Reduced effort of reading • Enhanced quality of sleep” and the adverse effects (patients with PTSD [5]; Patient 9C, 3 mg) was “became irritable and experienced word finding difficulties”. For the same compound, the “intrusive thoughts, mood stability and concentration” value (patients with PTSD [5]; Patient 9C, 3 mg) was “initial improved ability to dismiss and ignore distressing, intrusive thoughts”, the “functioning during complete withdrawal” value (patients with PTSD [5]; Patient 9C, periods of complete withdrawal) was “return to their pre-phenyloin functioning including a worsening of their symptoms of PTSD” and the “functional capacity and symptoms of PTSD” value (patients with PTSD [5]; patients with PTSD, Ultra low dose) was “significant improvements in functional capacity as well as a reduction in the symptoms of PTSD”. For the same compound, the “communication, prosody and rate of speech” value ([6]; Patient 7A (on antipsychotic medication), 2 mg daily) was “significant improvement in ability to communicate with less effort”, the “speech and reading aloud a standard text” value ([6]; Patient 7B, 1 mg sublingual) was “significant improvement in speech and ability to read aloud a standard text” and the effects when withdrawn ([6]; Patient 7B, phenyloin withdrawn) was “Positive effects abated”. For the same compound, the function ([7]; Patient 8A, bipolar mood disorder, compounded 2 mg capsule) was “significant improvement in function”, the improvements noted ([7]; Patient 8A, 2 mg capsule) was “enhanced organisation and planning • reduced effort required for social interaction • enhanced clarity of thought • a sense of being psychologically more normal” and the “clinical effect of a much higher dose” value ([7]; patients with bipolar spectrum disorders, much higher dose) was “good effect”. For the same compound, the executive functioning ([7]; some patients with bipolar mood disorder, very low dose added) was “significant improvement in their executive functioning”.
